Each structure is given as a SMILES string. A value given as a limit tells only on which side of the number the result lay.

One assay concerns MDA-MB-231. Briefly: CCK-8 anti-proliferation assay, MDA-MB-231. The settings on record: mean ± SD. Type of assay: cell-based, human. On the procedure:
(§1) Human cervical cancer HeLa, human prostate cancer PC3, human colonic carcinoma HCT116, human lung carcinoma A549, human breast cancer MDA-MB-231, mouse melanoma B16, human ovarian cancer SKOV3, human hepatoma Hep3B, and human liver L02 cells were purchased from the Cell Bank of Shanghai Institute of Biochemistry and Cell Biology, Chinese Academy of Sciences (Shanghai, China). The HeLa, A549, B16, PC3, MDA-MB-231, HCT116, and L02 cells were cultured in Dulbecco’s modified Eagle medium (DMEM, Gibco Inc.; Gaithersburg, MD, USA). All cultures were supplied with 10% fetal bovine serum (FBS; YHSM, Beijing, China), 100 IU/mL of penicillin, and 100 μg/mL of streptomycin, and cells were incubated at 37 °C in an atmosphere of 5% CO2.
(§2) A CCK-8 kit (MCE, USA) was used to perform a CCK-8 assay. Cells were plated and grown in the 96-well plates for the indicated period (48 h) in the incubator, followed by an incubation with the CCK-8 solutions for 1–4 h. Subsequently, the absorbance (450 nm) was measured by a microplate reader. The median inhibitory concentration (IC50) was determined from the dose–response curve. Experiments were performed in a triplicate.

The next assay deals with HeLa. Briefly: CCK-8 anti-proliferation assay, HeLa. The class given is cell-based, human. The settings on record: Homo sapiens, mean ± SD. On the procedure: as §1, §2
A general note: Tetrazolium dyes change colour on reduction, which living cells bring about.

The test system of assay [1] is HeLa cells. The experiment in a line: Annexin V-FITC/PI apoptosis assay. The settings on record: 12 μM. The class given is cell-based, human. The source says:
Apoptosis in cancer cells could be caused by the generation of intracellular ROS [31, 32, 33]. Three methods were utilized to assess the effect of compound 5c on the apoptosis of HeLa cells. First, Hoechst 33342 was utilized to stain the HeLa cells that were pretreated with different concentrations of compound 5c. Then, the cells were observed under a fluorescence microscope. […] Second, an annexin V-FITC/PI double staining method was used to quantitatively detect the effect of compound 5c on cell apoptosis. A quantitative analysis was performed using a flow cytometry analysis. […] Third, the levels of Bcl-xl family proteins, well-known as apoptosis-related proteins, were determined by Western blotting analysis.
For the cell cycle analysis, HeLa cells seeded in a 6-well plate (3 × 10^5 per well) were incubated with different concentrations of compound 5c or 0.1% DMSO for 24 h. Then, the cells were digested with 0.25% trypsin (without EDTA) and were washed twice with PBS, fixed in 70% ethanol overnight, and stained with PI ([…], Sigma) plus 0.2 mg/mL of DNase-free RNase A (Qiagen) for 20 minutes at room temperature. For the annexin V apoptosis assay, HeLa cells seeded in a 6-well plate (3 × 10^5 per well) were incubated with different concentrations of compound 5c or 0.1% DMSO for 24 h. Then, the cells were digested with 0.25% trypsin (without EDTA) and were washed twice with PBS. […]

A further assay deals with A549. The experiment in a line: CCK-8 anti-proliferation assay, A549. The class given is cell-based, human. The settings on record: mean ± SD; for IC50: 48 h. On the procedure:
as §1, §2

Another assay relates to Bax in HeLa cells. The experiment in a line: Western blot, Bax. The class given is cell-based, human. The settings on record: 6–12 μM, 24 h. On the procedure: Protein levels were determined by the standard Western blot assay. HeLa cells were incubated with different concentrations of compound 5c or 0.1% DMSO for 24 h. Cells harvested with trypsin were treated with 1× RIPA lysis buffer (50 mM Tris-HCl, pH 7.4, 150 mM NaCl, 0.25% deoxycholic acid, 1% NP-40, 1 mM ethylenediaminetetraacetate (EDTA), and protease inhibitor PMSF (Solarbio, Beijing, China) to extract the total proteins. Then, an aliquot of proteins from the total cell lysates (4–40 μg/lane) was separated using sodium dodecyl sulfate (8, 10, or 12%) polyacrylamide gel electrophoresis (BioRad Laboratories, Hercules, CA, USA). The aliquot was wet-transferred to a PVDF membrane (BioRad Laboratories, Hercules, CA, USA), blotted with primary antibodies (purchased from Cell Signaling Technology, Danvers, MA, USA) specific for the STAT3 (#12640), p-STAT3 (#9145), AKT (#4691), p-AKT (#4060), Bax (#5023), Bcl-xl (#2764), secondary isotype-specific antibodies (#7074) and glyceraldehyde-3-phosphate dehydro-genase (GAPDH, #2118) as the internal standard overnight; then, they were probed with secondary isotype-specific antibodies for another 2 h at 37 °C. The bound immuno-complexes were detected using a ChemiDOC XRS+ system (BioRad Laboratories, Hercules, CA, USA).
(In general: In western blotting, separated proteins are transferred to a membrane and probed.)

Another assay relates to HCT116. The experiment in a line: CCK-8 anti-proliferation assay, HCT116. The class given is cell-based, human. The settings on record: Homo sapiens, mean ± SD. On the procedure:
as §1, §2

Assay [2] concerns HeLa cells. The experiment in a line: Wound healing assay. Type of assay: cell-based, human. The settings on record: 6 μM, 48 h. On the procedure: A total of 1 × 10^6 HeLa cells/well in the logarithmic growth phase were seeded into 6-well plates. When the cell density reached 80–90%, a scratch was made in the monolayer in the middle of the well with a 200 μL pipette tip. The tip was kept perpendicular to the bottom of the well to obtain a straight gap. The detached cells were washed away and removed. Wound healing within the same scraped line was then observed and photographed at the indicated time points (0 h, 24 h, and 48 h). Images were taken at 0 h, 24 h and 48 h after scraping using a phase-contrast microscope. The wound closure was calculated as a percentage (%) of the difference in the width of the wound between 0 h, 24 h and 48 h relative to 0 h, as described below: Wound closure (%) = (Width of wound at 0 h − Width of wound at 24 h)/Width of wound at 0 h × 100%

In a further assay the test system is STAT3 in HeLa cells. The experiment in a line: Western blot, STAT3 and p-STAT3 (Y705). The class given is cell-based, human. The note with it: 6–12 μM, 24 h. On the procedure: As many quinone compounds have anti-proliferation activity by inhibiting the STAT3 [34], we evaluated whether compound 5c could inhibit its phosphorylation. HeLa cells were incubated with different concentrations (6–12 μM) of 5c for 24 h. Then, the levels of total STAT3 and phosphorylated STAT3 at the tyrosine 705 residue were detected by a Western blot analysis.
Protein levels were determined by the standard Western blot assay. HeLa cells were incubated with different concentrations of compound 5c or 0.1% DMSO for 24 h. […] The bound immuno-complexes were detected using a ChemiDOC XRS+ system (BioRad Laboratories, Hercules, CA, USA).

The test system of the next assay is L02 cells. Briefly: CCK-8 assay on normal cells, L02. The class given is cell-based. The settings on record: L02 human normal hepatocytes, 48 h, mean ± SD. On the procedure: as §1, §2

Broadly, the IC50 is the concentration that gives 50% inhibition. Read a low IC50 as greater potency in that assay. Broadly, the inhibition is the relative decrease from the control value, in per cent. Consider `N#C/C(=C\c1ccc(C2=CC(=O)c3ccccc3C2=O)o1)C(=O)NCCN1CCOCC1` [Compound 5c, (E)-2-cyano-3-(5-(1,4-dioxo-1,4-dihydronaphthalen-2-yl)furan-2-yl)-N-(2-morpholinoethyl)acrylamide], for which the concentration for half-maximal inhibition (IC50) in the assay on MDA-MB-231 (48 h) is 40.74 ± 0.12 µM; with MDA-MB-231 (Homo sapiens, MDA-MB-231, 48 h), more than 20.5 µM; with HeLa (48 h), 3.1 ± 0.02 µM; in the assay with A549, 35.27 ± 0.07 µM; with A549 (Homo sapiens, A549, 48 h), more than 20.5 µM; with HCT116 (HCT-116, 48 h), 13.38 ± 0.04 µM. Also, the half-inhibitory concentration (IC50) in the assay with L02 cells stood at 51.7 ± 0.1 µM. The inhibition at 20 µM was determined as 75.78 ± 0.05% in the assay with HeLa (20 μM, read-out: Inhibition Rate (%) at 20 μM HeLa); 24.69 ± 0.04% with A549 (Homo sapiens, A549, 20 μM, read-out: Inhibition Rate (%) at 20 μM A549); 67.67 ± 0.01% in the assay with HCT116 (HCT-116, 20 μM, read-out: Inhibition Rate (%) at 20 μM HCT116). Moreover, in the assay with HeLa cells [1], the “percentage of apoptotic cells” value came out at 46.70%. Besides, the “levels of Bax” value with Bax in HeLa cells is “increased”. The cell migration result in the assay with HeLa cells [2] is recorded as “significantly inhibited”. Besides, in the assay with STAT3 in HeLa cells, the “Y705 STAT3 phosphorylation” value is given as “dose-dependently abrogated”. In addition, in the assay on STAT3 in HeLa cells, the “level of total STAT3” value was “slightly down-regulated”.

These data come from paper PMC9609996, “SAR Study and Molecular Mechanism Investigation of Novel Naphthoquinone-furan-2-cyanoacryloyl Hybrids with Antitumor Activity” (Pharmaceutics, 2022).
